Assay results reported in patent publication EP0198172A1, “Pharmaceutical preparation” (HERMES Fabrik pharmazeutischer Präparate Franz Gradinger …, priority 1985, dated 1986).

System: Patienten
Assay: Double-blind crossover clinical study, impedance cardiography (I.C.) in six patients
Type: in vivo, Menschen
Source text: Im folgenden werden klinische Versuche am Menschen beschrieben, die die Wirkungen der erfindungsgemäßen pharmazeutischen Zubereitung zeigen: • Tabelle 1 zeigt in schematischer Darstellung eine Doppel-Blind-Studie mit der erfindungsgemäßen pharmazeutischen Zubereitung.
Dabei bedeutet "I.C."Impedanz Cardiographie.
Zur Durchführung der Impedanz Cardiographie wird insbesondere verwiesen auf "Biomedical and clinical aspects for coenzyme Q, Volume 1 (1977) Volume 2 (1980), Volume 3 (1981), Volume 4 (1984), Elsevier/North-Holland Biomedical Press, Amsterdam-New York-Oxford" und auf Lee E. Baker (ebenda, Vol. 2,.Seite 289) und schließlich W.G. Kubicek, Aerospace Med. 37 (12), 1208, 1966.
Die Wirkungen der erfindungsgemäßen pharmazeutischen Zubereitung auf das Herz-Schlag-Volumen (SV), das Herz-Zeit-Volumen (CO) und den Heather Index (HI) von sechs Patienten wurden ermittelt und in der folgenden Tabelle 2 zusammengestellt.
Den sechs Patienten wurden gemäß Tabelle II gegeben: • CoQ10 : 3 x 33 mg = 99 mg täglich • Placebo : Oleum arachidis Vol.(eine Kapsel 0,5 ml) • CoQ10 + Vitamin E : (3 x 33 mg) + (3 x 100 mg) zusammen in 3 Kapseln täglich gelöst in Oleum arachidis • Vitamin E : 3 x 100 mg täglich (= 3 Kapseln . täglich). [formula]

[1] = oral capsules daily, impedance cardiography, result in words

SMILES: COC1=C(OC)C(=O)C(C/C=C(\C)CC/C=C(\C)CC/C=C(\C)CC/C=C(\C)CC/C=C(\C)CC/C=C(\C)CC/C=C(\C)CC/C=C(\C)CC/C=C(\C)CCC=C(C)C)=C(C)C1=O [CoQ10, 2.3-Dimethoxy-5-methyl-1.4-benzochinon mit einer isoprenoiden Seitenkette, mit 10 Dihydroisopren-Einheiten]
- Steigerung des Herzminutenvolumens (CO) (oral capsules daily (CoQ10 3 x 33 mg; combination 3 x 33 mg + 3 x 100 mg Vitamin E), versus controls, placebo and Vitamin E alone): ~20%
- Heather Index (HI) [1]: Ähnliches gilt
- Schlagvolumen (SV) [1]: Ähnliches gilt
